# Test results published in patent US20040048814A1, “Sustained release composition contraining clarithromycin” (priority 2000, published 2004).
# Read-outs that look alike come from different tables or passages of the source.
# Columns and labels:
# [1] = cited from earlier work
# [2] = In vitro dissolution test, paddle apparatus, pH 5.0 phosphate buffer; format: physicochemical; conditions: pH 5.0, 100 rpm, 900 ml
# Text: The dissolution test is usually the most appropriate analytical tool to assess the quality of the oral formulations and especially of sustained release oral formulations.
# [3] = cited from earlier work; remark: listed apart in the source
smiles,measurement,setting,value
"CC[C@H]1OC(=O)[C@H](C)[C@@H](O[C@H]2C[C@@](C)(OC)[C@@H](O)[C@H](C)O2)[C@H](C)[C@@H](O[C@@H]2O[C@H](C)C[C@H](N(C)C)[C@H]2O)[C@](C)(OC)C[C@@H](C)C(=O)[C@H](C)[C@@H](O)[C@]1(C)O [clarithromycin, Clarithromycin]",water solubility,[1]; pH below 5,good and quite constant
same,solubility,[1]; pH greater than 5,decreases dramatically
same,solubility,[1]; pH=8,quasi nil
same,% of dissolved clarithromycin,"[2]; after 5 minutes, amount of coating 12% of the weight of the core",about 40%
same,% of dissolved clarithromycin,"[2]; after 5 minutes, amount of coating 14% of the weight of the core",about 20%
same,% of dissolved clarithromycin,"[2]; after about 5 minutes, amount of coating 10% of the weight of the core",about 80%
same,increase of bioavailability by food intake (mean),[3]; food intake immediately before administration,25%
same,time to achieve peak blood concentrations,[3]; oral administration,about 2 hours
same,availability after an oral dose,[3]; oral dose of 250 mg,~55%
